Activity calls are given as the source filed them.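 How the source made its calls: active means GFP ratio vs DMSO below 0.65 in a strain, using the primary screen cutoff set for that strain's protein target; inactive means the rest.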
Columns and labels:
Experiment in all cases: TORC1 pathway position of GFP reporter effects – S. cerevisiae, TORC1 bypass vs wild-type strains, mechanism study for yeast TOR pathway modulator project (AID 504479)
Details in all cases: fluorescence ratio vs DMSO, at 10 µM
[1] = system: YNL142W
[2] = system: BY4741
[3] = system: YCL025C
[4] = system: YBR084C-A
[5] = system: YKL103C
[6] = system: YCR005C
[7] = MEP2-GFP in TORC1 bypass strain, stronger effect = higher value
[8] = AGP1-GFP in TORC1 bypass strain, stronger effect = higher value
[9] = RPL19A-GFP in TORC1 bypass strain, stronger effect = lower value
[10] = LAP4-GFP in TORC1 bypass strain, stronger effect = higher value
[11] = CIT2-GFP in TORC1 bypass strain, stronger effect = higher value

In the case of `O=[N+]([O-])c1cc(S(=O)(=O)C(F)(F)F)ccc1Sc1nc2ccccc2s1`, the GFP ratio vs DMSO [1, 7] is reported as 0.92, the GFP ratio vs DMSO [1] is reported as 0.887 (inactive) and the GFP ratio vs DMSO [2] is reported as 0.811 (inactive). For the same molecule, the GFP ratio vs DMSO [3, 8] was 0.722, the GFP ratio vs DMSO [3] was 0.876 (inactive) and the GFP ratio vs DMSO [4, 9] was 0.993. The GFP ratio vs DMSO [4] was 0.985 (inactive), the GFP ratio vs DMSO [5, 10] was 1.22 and the GFP ratio vs DMSO [5] was 1.71. The GFP ratio vs DMSO [6, 11] was 0.848 and the GFP ratio vs DMSO [6] was 0.985 (inactive).
In the case of `CC(C)(C)C(=O)NC(=S)NNC(=O)c1ccc(-c2ccccc2)cc1`, the GFP ratio vs DMSO [1, 7] is reported as 1.27, the GFP ratio vs DMSO [1] is reported as 1.51 (inactive) and the GFP ratio vs DMSO [2] is reported as 1.36 (inactive). For the same molecule, the GFP ratio vs DMSO [3, 8] was 1.03, the GFP ratio vs DMSO [3] was 1.07 (inactive) and the GFP ratio vs DMSO [4, 9] was 1.2. For the same molecule, the GFP ratio vs DMSO [4] was 1.25 (inactive), the GFP ratio vs DMSO [5, 10] was 1.47 and the GFP ratio vs DMSO [5] was 2.48. The GFP ratio vs DMSO [6, 11] was 0.935 and the GFP ratio vs DMSO [6] was 1.37 (inactive).
With `COc1ccc(/C=C/C(=O)NC(=S)NNC(=O)c2cnccn2)cc1` the GFP ratio vs DMSO [1, 7] was 1.03, the GFP ratio vs DMSO [1] was 1.14 (inactive) and the GFP ratio vs DMSO [2] was 0.962 (inactive). For the same molecule, the GFP ratio vs DMSO [3, 8] was 0.694, the GFP ratio vs DMSO [3] was 0.807 (inactive) and the GFP ratio vs DMSO [4, 9] was 0.981. For the same molecule, the GFP ratio vs DMSO [4] was 0.94 (inactive), the GFP ratio vs DMSO [5, 10] was 1.18 and the GFP ratio vs DMSO [5] was 1.51. The GFP ratio vs DMSO [6, 11] was 0.87 and the GFP ratio vs DMSO [6] was 1.03 (inactive).
With `O=C(NC(=S)NNC(=O)c1cnccn1)c1ccc(F)cc1` the GFP ratio vs DMSO [1, 7] was 0.971, the GFP ratio vs DMSO [1] was 1.07 (inactive) and the GFP ratio vs DMSO [2] was 0.925 (inactive). For the same molecule, the GFP ratio vs DMSO [3, 8] was 0.606, the GFP ratio vs DMSO [3] was 0.808 (inactive) and the GFP ratio vs DMSO [4, 9] was 0.827. The GFP ratio vs DMSO [4] was 0.877 (inactive), the GFP ratio vs DMSO [5, 10] was 1.35 and the GFP ratio vs DMSO [5] was 1.64. For the same molecule, the GFP ratio vs DMSO [6, 11] was 0.691 and the GFP ratio vs DMSO [6] was 0.716 (inactive).
For `COc1ccc([N+](=O)[O-])c(S(=O)(=O)c2ccc(Cl)cc2)n1`, the GFP ratio vs DMSO [1, 7] was 1.01, the GFP ratio vs DMSO [1] was 1.24 (inactive) and the GFP ratio vs DMSO [2] was 1.04 (inactive). The GFP ratio vs DMSO [3, 8] was 0.905, the GFP ratio vs DMSO [3] was 1.18 (inactive) and the GFP ratio vs DMSO [4, 9] was 0.937. For the same molecule, the GFP ratio vs DMSO [4] was 0.829 (inactive), the GFP ratio vs DMSO [5, 10] was 1.92 and the GFP ratio vs DMSO [5] was 2.84. The GFP ratio vs DMSO [6, 11] was 0.761 and the GFP ratio vs DMSO [6] was 0.9 (inactive).
With `COc1ccc([N+](=O)[O-])c(S(=O)(=O)c2ccccc2)n1` the GFP ratio vs DMSO [1, 7] was 0.877, the GFP ratio vs DMSO [1] was 1.03 (inactive) and the GFP ratio vs DMSO [2] was 0.896 (inactive). For the same molecule, the GFP ratio vs DMSO [3, 8] was 0.971, the GFP ratio vs DMSO [3] was 1.14 (inactive) and the GFP ratio vs DMSO [4, 9] was 0.924. For the same molecule, the GFP ratio vs DMSO [4] was 0.967 (inactive), the GFP ratio vs DMSO [5, 10] was 1.33 and the GFP ratio vs DMSO [5] was 1.97. The GFP ratio vs DMSO [6, 11] was 0.862 and the GFP ratio vs DMSO [6] was 0.792 (inactive).
For `CCOC(=O)c1c(C)oc2c1c(C(c1cccnc1)N1CCOCC1)c(O)c1ccccc12` (stereo unspecified), the GFP ratio vs DMSO [1, 7] was 1.08, the GFP ratio vs DMSO [1] was 1.27 (inactive) and the GFP ratio vs DMSO [2] was 1.09 (inactive). For the same molecule, the GFP ratio vs DMSO [3, 8] was 0.642, the GFP ratio vs DMSO [3] was 0.972 (inactive) and the GFP ratio vs DMSO [4, 9] was 1.1. For the same molecule, the GFP ratio vs DMSO [4] was 0.914 (inactive), the GFP ratio vs DMSO [5, 10] was 1.21 and the GFP ratio vs DMSO [5] was 2.09. The GFP ratio vs DMSO [6, 11] was 0.839 and the GFP ratio vs DMSO [6] was 1.12 (inactive).
In the case of `O=C(OCC(=O)N1CCN(C(=O)c2ccco2)CC1)c1cc(-c2cccc(Br)c2)nc2ccccc12`, the GFP ratio vs DMSO [1, 7] is reported as 1.01, the GFP ratio vs DMSO [1] is reported as 1.09 (inactive) and the GFP ratio vs DMSO [2] is reported as 0.833 (inactive). The GFP ratio vs DMSO [3, 8] was 1.08, the GFP ratio vs DMSO [3] was 1.2 (inactive) and the GFP ratio vs DMSO [4, 9] was 0.991. For the same molecule, the GFP ratio vs DMSO [4] was 0.79 (inactive), the GFP ratio vs DMSO [5, 10] was 0.965 and the GFP ratio vs DMSO [5] was 1.37 (inactive). For the same molecule, the GFP ratio vs DMSO [6, 11] was 0.954 and the GFP ratio vs DMSO [6] was 1.19 (inactive).
For `O=C(Oc1c(Cl)cc(Cl)c2cccnc12)c1cccc([N+](=O)[O-])c1`, the GFP ratio vs DMSO [1, 7] was 1.01, the GFP ratio vs DMSO [1] was 0.95 (inactive) and the GFP ratio vs DMSO [2] was 0.774 (inactive). For the same molecule, the GFP ratio vs DMSO [3, 8] was 0.717, the GFP ratio vs DMSO [3] was 0.875 (inactive) and the GFP ratio vs DMSO [4, 9] was 1.12. The GFP ratio vs DMSO [4] was 1.18 (inactive), the GFP ratio vs DMSO [5, 10] was 1.15 and the GFP ratio vs DMSO [5] was 1.68. For the same molecule, the GFP ratio vs DMSO [6, 11] was 0.791 and the GFP ratio vs DMSO [6] was 1.07 (inactive).
`O=C(OCn1ncc(Br)c(Br)c1=O)c1c(F)cccc1F` was tested, and the GFP ratio vs DMSO [1, 7] was 0.876, the GFP ratio vs DMSO [1] was 0.897 (inactive) and the GFP ratio vs DMSO [2] was 0.824 (inactive). For the same molecule, the GFP ratio vs DMSO [3, 8] was 0.715, the GFP ratio vs DMSO [3] was 0.903 (inactive) and the GFP ratio vs DMSO [4, 9] was 1.05. The GFP ratio vs DMSO [4] was 1 (inactive), the GFP ratio vs DMSO [5, 10] was 1.37 and the GFP ratio vs DMSO [5] was 1.86. The GFP ratio vs DMSO [6, 11] was 0.891 and the GFP ratio vs DMSO [6] was 1.02 (inactive).
In the case of `Cc1ccc(C(c2cc(Cl)c3cccnc3c2O)N2CCN(C)CC2)cc1` (stereo unspecified), the GFP ratio vs DMSO [1, 7] is reported as 1.03, the GFP ratio vs DMSO [1] is reported as 0.862 (inactive) and the GFP ratio vs DMSO [2] is reported as 0.736 (inactive). The GFP ratio vs DMSO [3, 8] was 0.652, the GFP ratio vs DMSO [3] was 0.76 (inactive) and the GFP ratio vs DMSO [4, 9] was 0.949. For the same molecule, the GFP ratio vs DMSO [4] was 0.938 (inactive), the GFP ratio vs DMSO [5, 10] was 1.23 and the GFP ratio vs DMSO [5] was 1.63. For the same molecule, the GFP ratio vs DMSO [6, 11] was 0.583 and the GFP ratio vs DMSO [6] was 0.808 (inactive).
